In PMC3397391 (Chemistry & biology, 2012):

Tested on: cultured P. falciparum
Test: Cell culture inhibition assay, cultured parasites
Type: cell-based, Plasmodium falciparum
Conditions: in the presence of hypoxanthine; data not shown

In the case of `O=c1[nH]cnc2c([C@@H]3N[C@H](COP(=O)(O)O)[C@@H](O)[C@H]3O)c[nH]c12` [ImmHP, Immucillin-H 5′-phosphate], the “activity against cultured P. falciparum” value was “lacks activity”.
